Test results reported in US5468772A, “Tripterinin compound and method” (Pharmagenesis, Inc., priority 1993, dated 1995).

Legend:
[1] = test system: IFNγ; assay: IFNγ production by PHA stimulated human PBLs (ELISA); assay type: cell-based; details: 24 h
Experimental: (§1) The effect of tripterinin on the production of the cytokines IL-1b, IL2, IL-6, IFNγ, and TNFα was assessed by measurement of the concentration of these cytokines in PHA stimulated human PBL cultures. Cytokine levels were measured by standard ELISA methods using commercially available kits, as detailed in Example 6. Briefly, assay buffer was added to each of the wells of a microtiter plate containing pre-bound anti-cytokine antibody, followed by addition of standard or sample solution, diluted appropriately for the cytokine concentration measured, followed by a second reporter-labeled antibody specific against the anti-cytokine antibody. […]
(§2) Cytokine measurements were carried out using commercially available ELISA assay kits (R&D Systems), in accordance with the supplier's protocols. In brief, 100 μl of the assay buffer supplied was added to each of the wells of a microtiter plate containing pre-bound anti-cytokine antibody, followed by 100 μl of standard or sample solution, diluted appropriately for the concentration range measured. […]
(§3) Following two hours incubation, the plates were washed four times with assay buffer, and the second antibody, anti-anti-cytokine-horseradish peroxidase (HRP), was added to each well in a volume of 200 μl. […] Optical density was determined using a Molecular Devices microtiter plate reader.

[2] = test system: IL-1b; assay: IL-1b production by PHA stimulated human PBLs (ELISA); assay type: cell-based; details: 0.7 and 3.13 μg/ml tripterinin, 24 h
Experimental: as §1, §2, §3

[3] = test system: human PBLs; assay: Cytotoxicity, MTT reduction, human PBLs; assay type: cell-based; details: up to 10 μg/ml, highest tested, 24 h
Experimental: (§4) Potential cytotoxicity of tripterinin was assessed by measurement of the effect of the compound on reduction of MTT (3-[4,5-Dimethylthiazol-2-yl]-2,5-diphenyltetrazolium bromide) by cultured cells, an index of cellular respiration and a sensitive assay for the detection of cytotoxicity (Green, et al.). Toxicity was evaluated in vitro in human PBLs and in mouse thymocytes, as detailed in Example 7. Sodium azide was used as a cytotoxic control. Cytotoxicity was also assessed using the standard method of trypan blue dye staining.
(§5) Potential cytotoxicity of tripterinin was assessed by measurement of the compound's effect on the reduction of MTT (3-[4,5-Dimethylthiazol-2-yl]-2,5-diphenyltetrazolium bromide) by cultured cells. MTT, a yellow-colored compound, is reduced by mitochondrial enzymes to form a purple crystalline reduction product (formazan), providing an index of cellular respiration as well as a sensitive assay for cytotoxicity (Green, et al.).
(§6) Cytotoxicity was assessed in cultured human PBLs and mouse thymocytes. […] (to solubilize the formazan crystals, the MTT reduction product), optical density was determined at 570-650 nm in a Molecular Devices microtiter plate reader. Data are expressed as the ratio of the optical density of the tripterinin treated sample to that of untreated controls. […]

[4] = test system: mouse thymocytes; assay: Cytotoxicity, MTT reduction, mouse thymocytes; assay type: cell-based; details: up to 10 μg/ml, highest tested, 24 h
Experimental: as §4, §5, §6

[5] = Solubility of crystalline tripterinin in organic solvents; assay type: physicochemical; details: methylene chloride or acetone

Q: For C[C@]12CCC[C@]3(COC1=O)[C@@H]2CC[C@@]12C[C@@H](CC[C@]13O)[C@](C)(O)C2 [tripterinin], which “decrease in IFNγ production” value ([1]; 0.7 μg/ml tripterinin) is on record?
A: 84%

Q: And the “decrease in IFNγ production” value ([1]; 3.13 μg/ml tripterinin)?
A: 80%

Q: And the “effect on IL-1B production” value [2]?
A: did not significantly affect

Q: What about the “cytotoxicity (MTT reduction)” value [3] of the same compound?
A: No significant toxicity

Q: What about the “cytotoxicity (MTT reduction)” value ([3]; listed as Tripterinin) of the same compound?
A: no significant toxicity

Q: And the “cytotoxicity (MTT reduction)” value [4]?
A: No significant toxicity

Q: And the “cytotoxicity (MTT reduction)” value ([4]; listed as Tripterinin)?
A: no significant toxicity

Q: What about the “dissolution of crystalline compound” value [5] of the same compound?
A: dissolved easily
